13 compounds from ChEMBL document CHEMBL5576046, “Replacement of sulfonamide by sulfoximine within a helicase-primase inhibitor with restricted flexibility” (Bioorg Med Chem Lett, 2024) can be followed below.

Format in all cases: functional, organism-based
Test [1] deals with Human alphaherpesvirus 2. Description: Antiviral activity against HSV-2 infected in human ARPE-19 cells assessed as inhibition of viral replication incubated for 16 hrs by fluorescence based analysis. The settings on record: Human alphaherpesvirus 2, ARPE-19, 16 h.
Test [2] relates to Human alphaherpesvirus 1. Description: Antiviral activity against HSV-1 by CPE assay.
Test [3] relates to Human alphaherpesvirus 2. Description: Antiviral activity against HSV-2.
Test [4] relates to Human alphaherpesvirus 1. The test is described as follows: Antiviral activity against HSV-1.

`NS(=O)(=O)c1cc2c(cc1F)CCN2C(=O)[C@@H]1Cc2ccc(-c3ccccn3)cc2C1`: in the test on Human alphaherpesvirus 2 [1], the half-maximal inhibitory concentration (IC50) amounted to 6 nM.

On to `Cc1nc(N(C)C(=O)C2Cc3ccc(-c4cc(F)ccc4F)cc3C2)sc1S(C)(=N)=O` (stereo in doubt; 2a), for which the IC50 with Human alphaherpesvirus 1 [2] and with Human alphaherpesvirus 2 [3] was 25000 nM each time.

For the compound `NS(=O)(=O)c1cc2c(cc1F)CCN2C(=O)[C@@H]1Cc2ccc(-c3cc(F)ccc3F)cc2C1`, in the test with Human alphaherpesvirus 2 [1], the IC50 was found to be 12 nM.

In the case of `Cc1nc(N(C)C(=O)Cc2ccc(-c3cc(F)ccc3F)cc2)sc1S(C)(=N)=O` (stereo unspecified), the figures for the IC50 in the test on Human alphaherpesvirus 2 [3] (Human alphaherpesvirus 2) and with Human alphaherpesvirus 1 [4] were 28 nM and 19 nM, respectively.

For `Cc1nc(N(C)C(=O)Cc2ccc(-c3ccccn3)cc2)sc1S(N)(=O)=O` [PRITELIVIR], the concentration for half-maximal inhibition (IC50) with Human alphaherpesvirus 2 [3] (Human alphaherpesvirus 2) and in the test on Human alphaherpesvirus 1 [4] was 20 nM in each case.

Consider `CS(=N)(=O)c1cc2c(cc1F)CCN2C(=O)[C@@H]1Cc2ccc(-c3cc(F)ccc3F)cc2C1` (stereo partly specified), for which the IC50 in the test with Human alphaherpesvirus 2 [1] came out at 48 nM.

With `Cc1nc(N(C)C(=O)[C@@H]2Cc3ccc(-c4cc(F)ccc4F)cc3C2)sc1S(N)(=O)=O`, the IC50 in the test on Human alphaherpesvirus 1 [2] (Human alphaherpesvirus 1) was determined as 1 nM; in the test on Human alphaherpesvirus 2 [3] (Human alphaherpesvirus 2), 16 nM.

As for `Cc1nc(N(C)C(=O)C2Cc3ccc(-c4cc(F)ccc4F)cc3C2)sc1S(C)(=N)=O` (stereo in doubt; 2c), the IC50 in the test on Human alphaherpesvirus 1 [2] worked out at 400 nM; in the test with Human alphaherpesvirus 2 [3] it was 2000 nM.

On to `CS(=N)(=O)c1cc2c(cc1F)CCN2C(=O)[C@@H]1Cc2ccc(-c3ccccn3)cc2C1` (stereo partly specified), for which the IC50 with Human alphaherpesvirus 2 [1] came out at 37 nM.

Consider `Cc1nc(N(C)C(=O)C2Cc3ccc(-c4cc(F)ccc4F)cc3C2)sc1S(C)(=N)=O` (stereo in doubt; 2b), for which the values for the IC50 in the test with Human alphaherpesvirus 1 [2] and in the test on Human alphaherpesvirus 2 [3] were 300 nM and 1250 nM, respectively.

With `Cc1nc(N(C)C(=O)[C@@H]2Cc3ccc(-c4ccccn4)cc3C2)sc1S(N)(=O)=O`, the IC50 in the test on Human alphaherpesvirus 1 [2] (Human alphaherpesvirus 1) was 7 nM.

As to `Cc1nc(N(C)C(=O)C2Cc3ccc(-c4cc(F)ccc4F)cc3C2)sc1S(C)(=N)=O` (stereo in doubt; 2d), the values for the IC50 in the test on Human alphaherpesvirus 1 [2] and with Human alphaherpesvirus 2 [3] were 8000 nM and 50000 nM, respectively.

`Cc1nc(N(C)C(=O)[C@H]2Cc3ccc(-c4cc(F)ccc4F)cc3C2)sc1S(N)(=O)=O`: the IC50 with Human alphaherpesvirus 1 [2] (Human alphaherpesvirus 1) is 2000 nM; with Human alphaherpesvirus 2 [3] (Human alphaherpesvirus 2) it was 16000 nM.

In general, IC50 refers to the point on the concentration scale where inhibition reaches its midpoint.
